For one data set, the system named is Aphidius rhopalosiphi. Kind of data set: LR50; higher = less toxic. To be noted: not reported; mortality.
In the next data set the test system is Pimephales promelas. To be noted: chronic/long-term; reproduction.
The subject of the next data set is Oncorhynchus mykiss. To be noted: acute; duration: 96 hours; mortality.
Another data set has as its system Folsomia candida. As to conditions: chronic/long-term; mortality.
The next data set has as its system Canidae. To be noted: chronic; duration: 2 years; Dog Other; histopathology: nonneoplastic.
A further data set deals with Danio rerio. As to conditions: chronic.
In another data set the test system is Daphnia magna. To be noted: chronic/long-term; duration: 21 days; reproduction.
Another data set has as its system Apis mellifera. As to conditions: acute, mortality.
For data set [1] the following is noted: chronic; duration: 128 days; other.
Another data set has as its system Bibionidae. To be noted: chronic/long-term.
Another data set relates to Oryctolagus sp. To be noted: developmental; development.
Another data set relates to Tagia sp. As to conditions: chronic/long-term; growth.

The values below come from EPA's ToxValDB 9.5 (doi:10.2903/j.efsa.2016.4420).

≈ marks a conversion by molar mass, not a printed value. Some results are limits rather than exact numbers.

In the data set with Aphidius rhopalosiphi, `CCC(CC)Nc1c([N+](=O)[O-])cc(C)c(C)c1[N+](=O)[O-]` [Pendimethalin] returned an LR50 of 1200 g/ha. Moreover, the NOEC is 0.0063 mg/L in the data set on Pimephales promelas; 193 mg/kg in the data set with Folsomia candida; 0.032 mg/L with Danio rerio; 0.0145 mg/L with Daphnia magna; 0.00023 mg/L in data set [1]; 227 mg/kg with Bibionidae (duration: 28 days). Besides, the NOEC in the data set with Bibionidae (duration: 30 days) was determined as 0.082 mg/L; in the data set on Tagia sp., 33.5 mg/kg. Moreover, the LD50 in the data set with Anas platyrhynchos (acute, oral, unspecified, mortality) was 1420 mg/kg-day; in the data set with Rattus norvegicus (acute, mortality), 3930 mg/kg-day; in the data set on Apis mellifera (dermal), > 100 µg/piece; with Apis mellifera (oral, unspecified), > 101 µg/piece. This compound also gave an NOEL in the data set on Anas platyrhynchos (reproductive) of 17.5 mg/kg-day. In addition, in the data set on Oncorhynchus mykiss, the LC50 (commonly the concentration that kills 50% of the test population) is 0.196 µg/mL (≈ 0.697 µM). The no-observed-adverse-effect level (NOAEL) (in general, the highest dose or exposure tested at which no adverse effect was seen) in the data set on Canidae came to 12.5 mg/kg-day; in the data set on Rattus norvegicus (reproduction developmental, body weight), 30 mg/kg-day; in the data set on Oryctolagus sp., 30 mg/kg-day.
